The values that follow come from article PMC5218480 (PLoS ONE, 2017).

The test system of this experiment is MV-4-11 cells. Kind of experiment: Gene expression microarray analysis (Affymetrix PrimeView) and GSEA. Set-up: RFU PODN (11730768_x_at) / Fold change /veh PODN (11730768_x_at) / RFU LINC00158 (11744669_a_at) / Fold change /veh LINC00158 (11744669_a_at) / RFU DUSP10 (11751237_a_at) / Fold change /veh DUSP10 (11751237_a_at) / RFU ID3 (11757404_x_at) / Fold change /veh ID3 (11757404_x_at) / RFU PLEKHG5 (11737974_s_at) / Fold change /veh PLEKHG5 (11737974_s_at) / RFU LRRC4B (11730491_at) / Fold change /veh LRRC4B (11730491_at) / RFU GIMAP4 (11747438_a_at) / Fold change /veh GIMAP4 (11747438_a_at) / RFU KRT8 (11758183_x_at) / Fold change /veh KRT8 (11758183_x_at) / RFU CNN1 (11734310_a_at) / Fold change /veh CNN1 (11734310_a_at) / RFU VPS37D (11726825_at) / Fold change /veh VPS37D (11726825_at) / RFU C10orf10 (11716522_x_at) / Fold change /veh C10orf10 (11716522_x_at) / RFU KIR2DL2 /// KIR2DL4 /// KIR2DL5A /// KIR2DL5B /// KIR2DS1 /// KIR2DS2 /// KIR2DS3 /// KIR2DS4 /// KIR3DL3 /// KIR3DL3 /// KIR3DS1 (11738374_at) / Fold change /veh KIR2DL2 /// KIR2DL4 /// KIR2DL5A /// KIR2DL5B /// KIR2DS1 /// KIR2DS2 /// KIR2DS3 /// KIR2DS4 /// KIR3DL3 /// KIR3DL3 /// KIR3DS1 (11738374_at) / RFU C1QL1 (11718748_at) / Fold change /veh C1QL1 (11718748_at) / RFU TMPRSS4 (11747572_a_at) / Fold change /veh TMPRSS4 (11747572_a_at) / RFU HAMP (11756126_x_at) / Fold change /veh HAMP (11756126_x_at) / RFU RNFT2 (11725882_a_at) / Fold change /veh RNFT2 (11725882_a_at) / RFU NR4A2 (11747474_a_at) / Fold change /veh NR4A2 (11747474_a_at) / RFU ABCC12 (11746883_a_at) / Fold change /veh ABCC12 (11746883_a_at) / RFU TMEM136 (11760407_x_at) / Fold change /veh TMEM136 (11760407_x_at) / RFU CLDN22 /// WWC2 (11732394_at) / Fold change /veh CLDN22 /// WWC2 (11732394_at) / RFU HLA-DPB1 (11760878_x_at) / Fold change /veh HLA-DPB1 (11760878_x_at) / RFU SPINT1 (11716480_a_at) / Fold change /veh SPINT1 (11716480_a_at) / RFU GAP43 (11754022_s_at) / Fold change /veh GAP43 (11754022_s_at) / RFU A4GNT (11735810_at) / Fold change /veh A4GNT (11735810_at) / RFU PRB3 (11715151_x_at) / Fold change /veh PRB3 (11715151_x_at) / RFU TUBB4B (11761932_at) / Fold change /veh TUBB4B (11761932_at) / RFU CAPN14 (11732068_a_at) / Fold change /veh CAPN14 (11732068_a_at) / RFU TMCC2 (11721928_a_at) / Fold change /veh TMCC2 (11721928_a_at) / RFU IRGQ (11745062_a_at) / Fold change /veh IRGQ (11745062_a_at) / RFU FAM174B (11720279_a_at) / Fold change /veh FAM174B (11720279_a_at) / RFU TMPRSS4 (11748680_a_at) / Fold change /veh TMPRSS4 (11748680_a_at) / RFU FAM212B (11763350_a_at) / Fold change /veh FAM212B (11763350_a_at) / RFU PLEKHG5 (11743358_a_at) / Fold change /veh PLEKHG5 (11743358_a_at) / RFU ZSCAN30 (11745921_a_at) / Fold change /veh ZSCAN30 (11745921_a_at) / RFU CMKLR1 (11741424_a_at) / Fold change /veh CMKLR1 (11741424_a_at) / RFU LOC101060620 /// MAPK8IP1 (11723275_at) / Fold change /veh LOC101060620 /// MAPK8IP1 (11723275_at) / RFU SPTSSB (11747773_x_at) / Fold change /veh SPTSSB (11747773_x_at) / RFU PRSS12 (11739890_at) / Fold change /veh PRSS12 (11739890_at) / RFU BIN1 (11741810_x_at) / Fold change /veh BIN1 (11741810_x_at) / RFU WNT11 (11732464_a_at) / Fold change /veh WNT11 (11732464_a_at) / RFU C10orf10 (11716521_a_at) / Fold change /veh C10orf10 (11716521_a_at) / RFU C5orf56 (11738089_at) / Fold change /veh C5orf56 (11738089_at) / RFU CYB561 (11721691_x_at) / Fold change /veh CYB561 (11721691_x_at) / RFU ANKRD19P (11752326_a_at) / Fold change /veh ANKRD19P (11752326_a_at) / RFU OR2T12 /// OR2T33 /// OR2T8 (11738714_s_at) / Fold change /veh OR2T12 /// OR2T33 /// OR2T8 (11738714_s_at) / RFU VCAN (11748164_a_at) / Fold change /veh VCAN (11748164_a_at) / RFU JSRP1 (11732532_at) / Fold change /veh JSRP1 (11732532_at) / RFU KRTAP10-11 (11738290_x_at) / Fold change /veh KRTAP10-11 (11738290_x_at) / RFU MYO3A (11730013_a_at) / Fold change /veh MYO3A (11730013_a_at) / RFU EBF3 (11725865_a_at) / Fold change /veh EBF3 (11725865_a_at) / RFU CAMK2N1 (11719241_x_at) / Fold change /veh CAMK2N1 (11719241_x_at) / RFU C5orf56 (11738088_a_at) / Fold change /veh C5orf56 (11738088_a_at) / RFU OLFML3 (11715873_a_at) / Fold change /veh OLFML3 (11715873_a_at) / RFU LOC100653217 /// NTM (11731650_a_at) / Fold change /veh LOC100653217 /// NTM (11731650_a_at) / RFU MAPK11 (11762145_a_at) / Fold change /veh MAPK11 (11762145_a_at) / RFU FIZ1 (11724087_x_at) / Fold change /veh FIZ1 (11724087_x_at) / RFU OASL (11726364_x_at) / Fold change /veh OASL (11726364_x_at) / RFU SOX15 (11748057_x_at) / Fold change /veh SOX15 (11748057_x_at) / RFU CD79A (11719716_a_at) / Fold change /veh CD79A (11719716_a_at) / RFU HIST1H1D (11736915_at) / Fold change /veh HIST1H1D (11736915_at) / RFU CASKIN2 (11723855_a_at) / Fold change /veh CASKIN2 (11723855_a_at) / RFU LOC730098 (11760151_x_at) / Fold change /veh LOC730098 (11760151_x_at) / RFU OR4N2 (11742367_at) / Fold change /veh OR4N2 (11742367_at) / RFU PRRT2 (11749266_a_at) / Fold change /veh PRRT2 (11749266_a_at) / RFU SNX32 (11753110_a_at) / Fold change /veh SNX32 (11753110_a_at) / RFU CDHR5 (11726645_a_at) / Fold change /veh CDHR5 (11726645_a_at) / RFU RCAN1 (11760418_a_at) / Fold change /veh RCAN1 (11760418_a_at) / RFU FAM167A (11723789_a_at) / Fold change /veh FAM167A (11723789_a_at) / RFU FAM26E (11764081_at) / Fold change /veh FAM26E (11764081_at) / RFU ISYNA1 (11749810_s_at) / Fold change /veh ISYNA1 (11749810_s_at) / RFU ACY1 (11761880_at) / Fold change /veh ACY1 (11761880_at) / RFU 11764098_at / Fold change /veh 11764098_at / RFU SAMD14 (11745864_x_at) / Fold change /veh SAMD14 (11745864_x_at) / RFU NPB (11741838_a_at) / Fold change /veh NPB (11741838_a_at) / RFU TMPRSS6 (11731388_a_at) / Fold change /veh TMPRSS6 (11731388_a_at) / RFU KRTAP10-2 (11738614_at) / Fold change /veh KRTAP10-2 (11738614_at) / RFU ARHGAP8 /// PRR5-ARHGAP8 (11727945_x_at) / Fold change /veh ARHGAP8 /// PRR5-ARHGAP8 (11727945_x_at) / RFU KRTAP5-7 /// NADSYN1 (11734609_at) / Fold change /veh KRTAP5-7 /// NADSYN1 (11734609_at) / RFU RASL12 (11751679_a_at) / Fold change /veh RASL12 (11751679_a_at) / RFU CDKN2B (11736163_a_at) / Fold change /veh CDKN2B (11736163_a_at) / RFU PRF1 (11729649_at) / Fold change /veh PRF1 (11729649_at) / RFU, ZNF638 /// ZNF638-IT1 / Fold change vs veh, ZNF638 /// ZNF638-IT1 / RFU, PANK3 / Fold change vs veh, PANK3 / RFU, SH3YL1 / Fold change vs veh, SH3YL1 / RFU, ZEB2 / Fold change vs veh, ZEB2 / RFU, NRIP1 / Fold change vs veh, NRIP1 / RFU, PTTG1IP / Fold change vs veh, PTTG1IP / RFU, CAPN2 / Fold change vs veh, CAPN2 / RFU, MED14 / Fold change vs veh, MED14 / RFU, SNORA58 / Fold change vs veh, SNORA58 / RFU, C1orf63 / Fold change vs veh, C1orf63 / RFU, LRRFIP1 / Fold change vs veh, LRRFIP1 / RFU, NDUFAF7 / Fold change vs veh, NDUFAF7 / RFU, SLC12A2 / Fold change vs veh, SLC12A2 / RFU, IBTK / Fold change vs veh, IBTK / RFU, ESF1 / Fold change vs veh, ESF1 / Fold change vs veh, TMEM50B / RFU, TAOK1 / Fold change vs veh, TAOK1 / RFU, ACBD3 / Fold change vs veh, ACBD3 / RFU, TMA16 / Fold change vs veh, TMA16 / RFU, RWDD3 / Fold change vs veh, RWDD3 / RFU, BCAT1 / Fold change vs veh, BCAT1 / RFU, EDEM3 / Fold change vs veh, EDEM3 / RFU, TMEM33 / Fold change vs veh, TMEM33 / RFU, WDR75 / Fold change vs veh, WDR75 / RFU, AHCTF1 / Fold change vs veh, AHCTF1 / RFU, TFRC / Fold change vs veh, TFRC / RFU, ZDHHC17 / Fold change vs veh, ZDHHC17 / RFU, NOM1 / Fold change vs veh, NOM1 / RFU, ARL8B / Fold change vs veh, ARL8B / RFU, ZBTB11 / Fold change vs veh, ZBTB11 / RFU, TAMM41 / Fold change vs veh, TAMM41 / RFU, KIAA1704 /// LOC100996395 / Fold change vs veh, KIAA1704 /// LOC100996395 / RFU, ING1 / Fold change vs veh, ING1 / RFU, TRMT61B / Fold change vs veh, TRMT61B / RFU, FUBP3 / Fold change vs veh, FUBP3 / RFU, TP53 / Fold change vs veh, TP53 / RFU, TNKS2 / Fold change vs veh, TNKS2 / RFU, ZFP14 / Fold change vs veh, ZFP14 / RFU, ACTR2 / Fold change vs veh, ACTR2 / RFU, PPP3R1 / Fold change vs veh, PPP3R1 / RFU, PIK3R1 / Fold change vs veh, PIK3R1 / RFU, HNRNPA1 / Fold change vs veh, HNRNPA1 / RFU, RNF170 / Fold change vs veh, RNF170 / RFU, ZNF28 / Fold change vs veh, ZNF28 / RFU, RNGTT / Fold change vs veh, RNGTT / RFU, OGT / Fold change vs veh, OGT / RFU, BRD1 / Fold change vs veh, BRD1 / RFU, MARS / Fold change vs veh, MARS / RFU, ZNF655 / Fold change vs veh, ZNF655 / RFU, FAHD1 / Fold change vs veh, FAHD1 / RFU, BDP1 / Fold change vs veh, BDP1 / RFU, LRRCC1 / Fold change vs veh, LRRCC1 / RFU, ARID1A / Fold change vs veh, ARID1A / RFU, ZNF146 / Fold change vs veh, ZNF146 / RFU, ZNF330 / Fold change vs veh, ZNF330 / RFU, GPN3 / Fold change vs veh, GPN3 / RFU, C9orf123 / Fold change vs veh, C9orf123 / RFU, N4BP2L2 / Fold change vs veh, N4BP2L2 / RFU, ARFIP1 / Fold change vs veh, ARFIP1 / RFU, FAM179B / Fold change vs veh, FAM179B / RFU, BCL10 / Fold change vs veh, BCL10 / RFU, UHRF1BP1L / Fold change vs veh, UHRF1BP1L / RFU, BET1 / Fold change vs veh, BET1 / RFU, CNOT2 / Fold change vs veh, CNOT2 / RFU, ZNF268 / Fold change vs veh, ZNF268 / Fold change vs veh, ZNF507 / RFU, DGCR2 / Fold change vs veh, DGCR2 / RFU, WDSUB1 / Fold change vs veh, WDSUB1 / Fold change vs veh, HSP90B1 /// MIR3652 / RFU, ADSS / Fold change vs veh, ADSS / RFU, GK / Fold change vs veh, GK / RFU, ZNF148 / Fold change vs veh, ZNF148 / RFU, TAF9 / Fold change vs veh, TAF9 / RFU, SLC1A5 / Fold change vs veh, SLC1A5 / RFU, SLMO2 / Fold change vs veh, SLMO2 / RFU, ABCC4 / Fold change vs veh, ABCC4 / RFU, LOC101060439 /// RAP1B / Fold change vs veh, LOC101060439 /// RAP1B / RFU, RFX7 / Fold change vs veh, RFX7 / RFU, GTPBP10 / Fold change vs veh, GTPBP10 / RFU, CNEP1R1 / Fold change vs veh, CNEP1R1 / RFU, BIVM-ERCC5 /// ERCC5 / Fold change vs veh, BIVM-ERCC5 /// ERCC5 / RFU, ILF3 / Fold change vs veh, ILF3 / RFU 11762660_at / Fold change /veh 11762660_at / RFU VCAN (11757783_s_at) / Fold change /veh VCAN (11757783_s_at) / RFU DDX43 (11728927_at) / Fold change /veh DDX43 (11728927_at) / RFU KRT8 (11758188_x_at) / Fold change /veh KRT8 (11758188_x_at) / RFU NKD1 (11759106_at) / Fold change /veh NKD1 (11759106_at) / RFU SRD5A1 (11742802_a_at) / Fold change /veh SRD5A1 (11742802_a_at) / RFU TPSAB1 /// TPSB2 (11721975_s_at) / Fold change /veh TPSAB1 /// TPSB2 (11721975_s_at) / RFU GSTM3 (11746129_a_at) / Fold change /veh GSTM3 (11746129_a_at) / RFU IL23R (11737362_x_at) / Fold change /veh IL23R (11737362_x_at) / RFU TMEM51 (11727254_a_at) / Fold change /veh TMEM51 (11727254_a_at) / RFU PIWIL2 (11732686_x_at) / Fold change /veh PIWIL2 (11732686_x_at) / RFU ORM1 (11744905_x_at) / Fold change /veh ORM1 (11744905_x_at) / RFU CCDC152 (11743942_at) / Fold change /veh CCDC152 (11743942_at) / RFU ECM1 (11717891_a_at) / Fold change /veh ECM1 (11717891_a_at) / RFU IL23R (11748794_a_at) / Fold change /veh IL23R (11748794_a_at) / RFU TNFAIP8L3 (11732012_x_at) / Fold change /veh TNFAIP8L3 (11732012_x_at) / RFU MBOAT4 (11741988_at) / Fold change /veh MBOAT4 (11741988_at) / RFU 11764193_at / Fold change /veh 11764193_at / RFU TMEM53 (11763286_at) / Fold change /veh TMEM53 (11763286_at) / RFU MAGEB2 (11727129_at) / Fold change /veh MAGEB2 (11727129_at) / RFU TMEM200A (11744735_a_at) / Fold change /veh TMEM200A (11744735_a_at) / RFU CCDC152 (11751479_a_at) / Fold change /veh CCDC152 (11751479_a_at) / RFU FAM211A (11726209_a_at) / Fold change /veh FAM211A (11726209_a_at) / RFU RGS16 (11746705_a_at) / Fold change /veh RGS16 (11746705_a_at) / RFU VCAN (11755009_s_at) / Fold change /veh VCAN (11755009_s_at) / RFU RHOB (11743442_s_at) / Fold change /veh RHOB (11743442_s_at) / RFU RGS16 (11720943_a_at) / Fold change /veh RGS16 (11720943_a_at) / RFU RGS16 (11720944_at) / Fold change /veh RGS16 (11720944_at) / RFU, VPS4B / Fold change vs veh, VPS4B / RFU, CREB1 / Fold change vs veh, CREB1 / RFU, DNAJC13 / Fold change vs veh, DNAJC13 / RFU, GNAQ / Fold change vs veh, GNAQ / RFU, CDK5R1 / Fold change vs veh, CDK5R1 / RFU, ZRANB3 / Fold change vs veh, ZRANB3 / RFU, CUL4A / Fold change vs veh, CUL4A / RFU, CCNY / Fold change vs veh, CCNY / RFU, UFL1 / Fold change vs veh, UFL1 / RFU, COG3 / Fold change vs veh, COG3 / RFU, DIAPH2 / Fold change vs veh, DIAPH2 / RFU, SKA2 / Fold change vs veh, SKA2 / RFU, AFF3 / Fold change vs veh, AFF3 / RFU, LMF1 / Fold change vs veh, LMF1 / RFU, IPO11 / Fold change vs veh, IPO11 / RFU, DFFB / Fold change vs veh, DFFB / RFU, FOXP1 / Fold change vs veh, FOXP1 / RFU, CARD8 / Fold change vs veh, CARD8 / RFU, STRN3 / Fold change vs veh, STRN3 / RFU, ADK / Fold change vs veh, ADK / RFU, RASSF2 / Fold change vs veh, RASSF2 / RFU, WIPF1 / Fold change vs veh, WIPF1 / RFU, LARP1B / Fold change vs veh, LARP1B / RFU, RASA1 / Fold change vs veh, RASA1 / RFU, RB1 / Fold change vs veh, RB1 / RFU, PPFIA1 / Fold change vs veh, PPFIA1 / RFU, MAT2A / Fold change vs veh, MAT2A / RFU, CCT5 / Fold change vs veh, CCT5 / RFU, WDR92 / Fold change vs veh, WDR92 / RFU, CUX1 / Fold change vs veh, CUX1 / RFU, TTC7A / Fold change vs veh, TTC7A / RFU, TMEM135 / Fold change vs veh, TMEM135 / RFU, DEPTOR / Fold change vs veh, DEPTOR / RFU, CPM / Fold change vs veh, CPM / RFU, DNAJB6 / Fold change vs veh, DNAJB6 / RFU, CACNA2D3 / Fold change vs veh, CACNA2D3 / RFU, DTX4 / Fold change vs veh, DTX4 / RFU, TFCP2 / Fold change vs veh, TFCP2 / RFU, GMCL1 /// GMCL1P1 / Fold change vs veh, GMCL1 /// GMCL1P1 / RFU, AEBP2 / Fold change vs veh, AEBP2 / RFU, SNHG1 /// SNORD22 /// SNORD25 /// SNORD26 /// SNORD27 /// SNORD28 /// SNORD29 /// SNORD31 / Fold change vs veh, SNHG1 /// SNORD22 /// SNORD25 /// SNORD26 /// SNORD27 /// SNORD28 /// SNORD29 /// SNORD31 / Fold change (Aza/veh), C12orf56 (ProbeSet 11735607_a_at) / Fold change (ACY-1035/veh), C12orf56 (ProbeSet 11735607_a_at) / Fold change (Aza/veh), FGFR1OP (ProbeSet 11751329_s_at) / Fold change (ACY-1035/veh), FGFR1OP (ProbeSet 11751329_s_at) / Fold change (Aza/veh), VPS36 (ProbeSet 11739960_a_at) / Fold change (ACY-1035/veh), VPS36 (ProbeSet 11739960_a_at) / RFU SYPL1 (11715823_x_at) / Fold change /veh SYPL1 (11715823_x_at) / RFU IGFBP7 (11715501_s_at) / Fold change /veh IGFBP7 (11715501_s_at) / RFU REEP3 (11722064_at) / Fold change /veh REEP3 (11722064_at) / RFU IGLL1 (11728026_x_at) / Fold change /veh IGLL1 (11728026_x_at): dose or concentration left out as unconfirmed. To be noted: MV-4-11 cells, 48 hours. The class given is cell-based, human.

Consider `Nc1ncn([C@@H]2O[C@H](CO)[C@@H](O)[C@H]2O)c(=O)n1` [azacitidine], for which the “RFU C10orf10 (11716521_a_at)” value was 42.51 RFU.
